Test results: paper PMC12723449, “From Pharmacophore to Warhead: NAD^+‐Targeting Triazoles as Mechanism‐Based Sirtuin Inhibitors” (Angewandte Chemie (International Ed. in English), 2025)

Target: T1, SIRT2 (Homo sapiens, UniProt Q8IXJ6)
T1 construct: For assay experiments, strep-tagged human SIRT1134−747 and SIRT256-356 were expressed and purified as previously; Strep-tag; made in house; host or cells: E. coli BL21 Star (DE3)
T1 sequence (Q8IXJ6 56-356 limits assumed): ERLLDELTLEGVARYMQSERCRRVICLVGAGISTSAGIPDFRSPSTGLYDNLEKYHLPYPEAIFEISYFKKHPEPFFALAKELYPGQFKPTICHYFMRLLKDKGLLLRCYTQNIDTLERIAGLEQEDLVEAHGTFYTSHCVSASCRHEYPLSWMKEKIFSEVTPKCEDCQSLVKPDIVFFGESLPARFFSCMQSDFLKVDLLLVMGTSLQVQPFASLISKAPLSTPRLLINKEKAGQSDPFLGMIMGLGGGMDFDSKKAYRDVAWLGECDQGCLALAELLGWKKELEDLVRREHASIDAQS
Experiment: CE-ESI-MS analysis of adducts formed in vitro
Type: biochemical
Details: SIRT2 incubated with NAD+ and compound, thermal denaturation
Procedure: Capillary electrophoresis–electrospray ionization–mass spectrometry (CE-ESI-MS) analysis of […]
Analysis of the enzymatic products were performed using a capillary electrophoresis coupled to mass spectrometry method (CE-MS) described first in the separation of inositol (pyro)phosphates.[11] CE (Agilent 7100 CE system) was coupled to a time-of-flight mass spectrometry Agilent 6545 system and ionization was performed with a commercially available Agilent Jet Stream (AJS) electrospray ionization (ESI) source. An Agilent liquid coaxial interface was used and the ionization spray was stabilized with a water-isopropanol (1:1 v/v) mixture as sheath liquid. The sheath liquid was pumped with an Agilent 1200 isocratic LC pump, using a 1:100 splitter and resulting in a flow of 1.5 µl/min.
A mixture of SIRT256-356 (final concentration of 11 mg/mL) in SEC buffer, compound 1 or 7 (3.33 mM of inhibitor with a final DMSO concentration of 3.33 % (v/v)) and NAD+ (final concentration of 10 mM) were incubated for 90 min and centrifuged for 5 min to remove inhibitor precipitate. Following SIRT2 denaturation at 65 °C for 1 min and centrifugation for 5 min to remove precipitated protein, 20 nL of each sample was injected under 100 mbar pressure for 20 s. […] Analytes were detected in negative ionization mode, a capillary voltage of -3000 V and an ESI spray current of 2.1 µA. […]

| ADPR adduct detected in solution by CE-ESI-MS | Compound |
| --- | --- |
| undetectable | COCCn1cc(COc2cccc(Cc3cnc(NC(=O)CSc4nc(C)cc(C)n4)s3)c2)nn1 [Compound 1, reference compound] |
| confirmed release of 7–ADPR | Cc1cc(C)nc(SCC(=O)Nc2ncc(Cc3cccc(OCc4c[nH]nn4)c3)s2)n1 [Compound 7] |
